The text below walks through data of PubChem BioAssay AID1259408 (Genetic Toxicology Data Bank (GENE-TOX), 2018).

Molecules are shown by their SMILES. The source made the active and inactive calls. No rule for the calls is given here.

The data set deals with GENE-TOX genotoxicity assays, various organisms and cells. The data set is described as follows: GENE-TOX mutagenicity studies. The conditions noted are these: for call: Assay Type: In vivo carcinogenicity studies.
[1] abbreviates: Species/Cell Type: Salmonella typhimurium (one or more of the five standard strains: TA98, TA100, TA1535, TA1537, and TA1538), Assay Type: Histidine reverse gene mutation, Ames assay, Assay Code: SAL+, Evaluation Type: Evaluation A (Pre-1980).
Where [2] appears, read: Species/Cell Type: Nonhuman, Assay Type: Sister-chromatid exchange (SCE) in vitro, Assay Code: SC2+D, Dose Response: With dose response, Evaluation Type: Evaluation B (Post-1980).
Where [3] appears, read: Species/Cell Type: Nonhuman, Assay Type: Chromosome aberrations in vitro, Assay Code: CY&+, Evaluation Type: Evaluation A (Pre-1980).
[4] abbreviates: Species/Cell Type: Nonhuman, Assay Type: Sister-chromatid exchange (SCE) in vivo, Assay Code: SC3+D, Dose Response: With dose response, Evaluation Type: Evaluation B (Post-1980).
[5] abbreviates: Species/Cell Type: Salmonella typhimurium (one or more of the five standard strains: TA98, TA100, TA1535, TA1537, and TA1538), Assay Type: Histidine reverse gene mutation, Ames assay, Assay Code: SAL+*, Activation: With metabolic activation, Evaluation Type: Evaluation A (Pre-1980).
The mark [6] stands for this setting: Species/Cell Type: Nonhuman, Assay Code: CCG+L, Evaluation Type: Evaluation A (Pre-1980).
Where [7] appears, read: Species/Cell Type: Nonhuman, Assay Type: Sister-chromatid exchange (SCE) in vitro, Assay Code: SC2+, Evaluation Type: Evaluation B (Post-1980).
The mark [8] stands for this setting: Species/Cell Type: Saccharomyces cerevisiae, Assay Type: Mitotic recombination or gene conversion, Assay Code: YEH-, Evaluation Type: Evaluation A (Pre-1980).
Where [9] appears, read: Species/Cell Type: Salmonella typhimurium, Assay Type: Forward and reverse gene mutation, host-mediated assay, Assay Code: HMA+, Evaluation Type: Evaluation A (Pre-1980).
[10] abbreviates: Species/Cell Type: Syrian hamster embryo (SHE) cells, Assay Type: Cell transformation, clonal assay, Assay Code: CTC+, Evaluation Type: Evaluation A (Pre-1980).

Regarding `O=[N+]([O-])c1ccc(N=Nc2ccccc2)cc1`, the mutagenic call under setting [1] was “active; positive”.

Consider `[N-]=[N+]=CC(=O)NCC(N)=O`, for which the mutagenic call reads like this: under setting [2], “active; positive”; under setting [1], “active; positive”.

For the compound `Cc1c(N)nc([C@H](CC(N)=O)NC[C@H](N)C(N)=O)nc1C(=O)N[C@H](C(=O)N[C@H](C)[C@@H](O)[C@H](C)C(=O)N[C@H](C(=O)NCCc1nc(-c2nc(C(=O)NCCC[S+](C)C)cs2)cs1)[C@@H](C)O)[C@@H](OC1OC(CO)C(O)C(O)C1OC1OC(CO)C(O)C(OC(N)=O)C1O)c1cnc[nH]1` (stereo partly specified), the mutagenic call was “active; positive” (Species/Cell Type: Chinese hamster ovary (CHO) cells, Assay Type: Forward gene mutation at the HPRT locus, Assay Code: CHO+, Evaluation Type: Evaluation B (Post-1980)); “active; positive” (Species/Cell Type: Human bone marrow, Assay Type: Chromosome aberrations in vivo, Assay Code: CY5+, Evaluation Type: Evaluation A (Pre-1980)); “active; positive” (Species/Cell Type: Human cell culture, Assay Type: Chromosome aberrations in vitro, Assay Code: CYZ+, Evaluation Type: Evaluation A (Pre-1980)); “active; positive” (Species/Cell Type: Human lymphocytes or leukocytes, Assay Type: Chromosome aberrations in vitro, Assay Code: CY7+D, Dose Response: With dose response, Evaluation Type: Evaluation A (Pre-1980)); “active; positive” (Species/Cell Type: Human lymphocytes, Assay Type: Micronucleus test in vitro, chromosome aberrations, Assay Code: MN7+, Evaluation Type: Evaluation A (Pre-1980)); “active; positive” (Species/Cell Type: Human lymphocytes, Assay Type: Sister-chromatid exchange (SCE) in vitro, Assay Code: SCL+, Evaluation Type: Evaluation B (Post-1980)). Also, the mutagenic call is “inactive; negative” (Species/Cell Type: Human lymphocytes, Assay Type: Sister-chromatid exchange (SCE) in vitro, Assay Code: SCL-, Evaluation Type: Evaluation A (Pre-1980)); “active; positive” (Species/Cell Type: Human, Assay Type: Sister-chromatid exchange (SCE) in vitro, Assay Code: SC1+D, Dose Response: With dose response, Evaluation Type: Evaluation B (Post-1980)); “inactive; negative” (Species/Cell Type: Human, Assay Type: Sister-chromatid exchange (SCE) in vitro, Assay Code: SC1-, Evaluation Type: Evaluation A (Pre-1980)); “active; positive” (Species/Cell Type: Mammalian polychromatic erythrocytes, Assay Type: Micronucleus test, chromosome aberrations, Assay Code: MNT+, Evaluation Type: Evaluation B (Post-1980)); “no conclusion” (Species/Cell Type: Mammalian polychromatic erythrocytes, Assay Type: Micronucleus test, chromosome aberrations, Assay Code: MNTT, Evaluation Type: Evaluation A (Pre-1980)); “active; positive” (Species/Cell Type: Mouse (C3H/10T1/2) cells, Assay Type: Cell transformation, Assay Code: CTH+, Evaluation Type: Evaluation A (Pre-1980)). Also, the mutagenic call is, setting by setting: under setting [3], “active; positive”; (Species/Cell Type: Nonhuman, Assay Type: Sister-chromatid exchange (SCE) in vitro, Assay Code: SC2+D, Dose Response: With dose response, Evaluation Type: Evaluation A (Pre-1980)) “active; positive”; under setting [2], “active; positive”; under setting [4], “active; positive”; (Species/Cell Type: Saccharomyces cerevisiae, Assay Type: Forward gene mutation, Assay Code: YEF+, Evaluation Type: Evaluation A (Pre-1980)) “active; positive”; (Species/Cell Type: Saccharomyces cerevisiae, Assay Type: Mitotic recombination or gene conversion, Assay Code: YEC+, Evaluation Type: Evaluation A (Pre-1980)) “active; positive”. For the same compound, the mutagenic call is, setting by setting: (Species/Cell Type: Saccharomyces cerevisiae, Assay Type: Mitotic recombination or gene conversion, Assay Code: YEH+, Evaluation Type: Evaluation A (Pre-1980)) “active; positive”; (Species/Cell Type: Saccharomyces cerevisiae, Assay Type: Reverse gene mutation, Assay Code: YER+, Evaluation Type: Evaluation A (Pre-1980)) “active; positive”; (Species/Cell Type: Vicia faba, Assay Type: Chromosome aberrations, Assay Code: VIC+, Evaluation Type: Evaluation A (Pre-1980)) “active; positive”. For the same compound, where the note is “Species/Cell Type: Nonhuman, Assay Code: CCGT, Evaluation Type: Evaluation A (Pre-1980)”, the call is “no conclusion”.

With `CCCCNP(=O)(N1CC1)N1CC1`, the mutagenic call was “active; positive” (Species/Cell Type: Drosophila melanogaster, Assay Type: Sex-linked recessive lethal gene mutation, Assay Code: SRL+, Evaluation Type: Evaluation A (Pre-1980)); “active; positive” under setting [3]; “active; positive” (Species/Cell Type: Schizosaccharomyces pombe, Assay Type: Reverse gene mutation, Assay Code: YEZ+, Evaluation Type: Evaluation A (Pre-1980)).

`O=C1c2cccc(O)c2C(=O)c2c(O[C@@H]3O[C@H](CO)[C@@H](O)[C@H](O)[C@H]3O)cccc21`: the mutagenic call under setting [5] is “active; positive”.

`OOC1CCCc2ccccc21` (stereo unspecified): under “Species/Cell Type: Saccharomyces cerevisiae, Assay Type: Mitotic recombination or gene conversion, Assay Code: YEC-, Evaluation Type: Evaluation A (Pre-1980)”, the mutagenic call is “inactive; negative”.

Turning to `Cc1cc(Cl)ccc1OCCCC(=O)O`, the mutagenic call was “inactive; negative” (Species/Cell Type: Drosophila melanogaster, Assay Type: Sex-linked recessive lethal gene mutation, Assay Code: SRL-, Evaluation Type: Evaluation A (Pre-1980)); “inactive; negative” (Species/Cell Type: Salmonella typhimurium, Serratia marcesens, Assay Type: Forward and reverse gene mutation, host-mediated assay, Assay Code: HM2-, Evaluation Type: Evaluation A (Pre-1980)).

On to `ONc1ncnc2nc[nH]c12`, for which the mutagenic call (Species/Cell Type: Neurospora crassa, Assay Type: Forward gene mutation, Assay Code: NEF+, Evaluation Type: Evaluation A (Pre-1980)) was “active; positive”.

As for `CC(=O)OC/C=C(C)/C=C/C=C(C)/C=C/C1=C(C)CCCC1(C)C`, the mutagenic call (Species/Cell Type: Human, Assay Type: Sister-chromatid exchange (SCE) in vitro, Assay Code: SC1+, Evaluation Type: Evaluation B (Post-1980)) is “active; positive” and the mutagenic call (Species/Cell Type: Nonhuman, Assay Type: Sister-chromatid exchange (SCE) in vitro, Assay Code: SC2T, Evaluation Type: Evaluation B (Post-1980)) is reported as “no conclusion”.

In the case of `O=[N+]([O-])c1ccc(-c2ccccc2)cc1`, the mutagenic call was “active; positive” (Species/Cell Type: Escherichia coli polA (W3119 vs P3478), Assay Type: Rec-assay, DNA effects (bacterial DNA repair), Assay Code: RE1+, Evaluation Type: Evaluation A (Pre-1980)); “inactive; negative” (Species/Cell Type: Neurospora crassa, Assay Type: Aneuploidy, chromosome aberrations, Assay Code: NEN-, Evaluation Type: Evaluation A (Pre-1980)); “active; positive” under setting [7]; “active; positive” under setting [4]; “inactive; negative” under setting [8]; “active; positive” under setting [1]. The mutagenic call was “active; positive” under setting [9]; “active; positive” (Species/Cell Type: Syrian hamster embryo (SA7/SHE) cells, Assay Type: Cell transformation, viral enhanced, Assay Code: CT7+, Evaluation Type: Evaluation A (Pre-1980)); “active; positive” under setting [10]. In addition, the call under setting [6] was “active; positive”.

For the compound `Nc1ccc(N=Nc2ccccc2)cc1`, the mutagenic call is “inactive; negative” (Species/Cell Type: Escherichia coli polA (W3110 vs P3478), Assay Type: Rec-assay, DNA effects (bacterial DNA repair), Assay Code: RE2-, Evaluation Type: Evaluation A (Pre-1980)); “no conclusion” (Species/Cell Type: Escherichia coli polA (W3119 vs P3478), Assay Type: Rec-assay, DNA effects (bacterial DNA repair), Assay Code: RE1T, Evaluation Type: Evaluation A (Pre-1980)); “inactive; negative” (Species/Cell Type: Fischer rat embryo (RLV/1706) cells, Assay Type: Cell transformation, viral enhanced, Assay Code: CTR-, Evaluation Type: Evaluation A (Pre-1980)); “inactive; negative” (Species/Cell Type: Mouse embryo (AKR/ME) cells, Assay Type: Cell transformation, Assay Code: CTK-, Evaluation Type: Evaluation A (Pre-1980)); “active; positive” under setting [7]; “active; positive” (Species/Cell Type: Nonhuman, Assay Type: Sister-chromatid exchange (SCE) in vivo, Assay Code: SC3+, Evaluation Type: Evaluation B (Post-1980)). Further, the mutagenic call is “active; positive” (Species/Cell Type: Rat primary hepatocytes, Assay Type: Unscheduled DNA synthesis (UDS) in vitro, DNA effects, Assay Code: UDP+, Evaluation Type: Evaluation A (Pre-1980)); “inactive; negative” under setting [8]; “active; positive” under setting [5]; “active; positive” under setting [9]; “active; positive” under setting [10]. Moreover, the call under setting [6] was “active; positive”.

As to `COc1cc2ccc(=O)oc2cc1O`, the mutagenic call (Species/Cell Type: Allium cepa, Assay Type: Chromosome aberrations, Assay Code: ALC+D, Dose Response: With dose response, Evaluation Type: Evaluation A (Pre-1980)) is “active; positive”.

In the case of `O=S(=O)(O)c1ccc(N=Nc2c(O)ccc3ccccc23)cc1`, the mutagenic call runs as follows: (Species/Cell Type: Bacillus subtilis (H17 vs M45), Assay Type: Rec-assay, spot test, DNA effects (bacterial DNA repair), Assay Code: REWT, Evaluation Type: Evaluation A (Pre-1980)) “no conclusion”; (Species/Cell Type: Salmonella typhimurium (one or more of the five standard strains: TA98, TA100, TA1535, TA1537, and TA1538), Assay Type: Histidine reverse gene mutation, Ames assay, Assay Code: SALT, Evaluation Type: Evaluation A (Pre-1980)) “no conclusion”.

On to `O[C@H]1c2ccc3cc4ccccc4cc3c2[C@@H]2OC2[C@@H]1O` (stereo partly specified), for which, under “Species/Cell Type: Chinese hamster lung (V79) cells, Assay Type: Forward gene mutation at the HPRT or ouabain locus, Assay Code: V79+, Evaluation Type: Evaluation A (Pre-1980)”, the mutagenic call is “active; positive”.
